Data set [1] concerns secretion of bile. The data set is described as follows: Activity on the secretion of bile, intraduodenal administration. Type of data set: in vivo, Male Wister rats. The following applies: 5 hours. How it is done: A. Intraduodenal administration
Male Wister rats weighing 200 to 250 g were used, ten rats in each group. Each rat was fasted for 6 to 8 hours, and was thereafter fastened as laid on its back to a fixed table under ethereal anesthesia. The abdomen was cut open along the midline. A polyethylene tube was inserted into and attached to the common bile duct. The rat was then allowed to stand for a period of time (1 hour) to assure stabilized flow of bile. The amount of bile flowing out for the following period of 30 minutes was taken as 100 to serve as a control amount for the subsequent flow of bile.
Next, the drug to be tested was intraduodenally administered to the rat, and the amount of bile flowing out from the polyethylene tube dropwise was measured over a period of 5 hours. The amount was measured for every 30-minute period of the first 2 hours after the administration of the drug and then for every one-hour period. Sodium dehydrocholate, bile acid preparation serving as a known cholagogue, was used as a control drug.
The dose was 200 mg/kg (weight of rat) for bornyl glucoside, or 100 mg (drug)/kg (weight of rat) for other borneols and sodium dehydrocholate. The drugs were used as suspended in 4% aqueous solution of gum arabic. Experimental results

Data set [2] has as its system secretion of bile. The data set is described as follows: Activity on the secretion of bile, oral administration. The format is in vivo, rats. The following applies: 5 hours. How it is done: B. Oral Administration As in the case of intraduodenal administration, the drug to be tested was orally administered to rats each having a polyethylene tube attached to the common bile duct, and the amount of bile flowing out was observed over a period of 5 hours.

In the next data set the test system is solids weight of bile. The data set is described as follows: Variations in the weight of solids in discharged bile. The note with it: intraduodenal, 100 mg/kg, 5 hours, pre-administration 30 minutes = 100. The format is in vivo, rats. How it is done: A. Variations in the weight of solids in discharged bile
The bile portions obtained from the bile secretion experiment (1)-A by intraduodenal administration were collected respectively for the observation periods. A quantity of each bile portion was freeze-dried, and the solids weight was measured to determine the variations in the solids weight of bile over the 5-hour period. The solids weight of bile obtained during the 30-minute period before the administration of the test drug, e.g. (+)-borneol, was calculated as 100.

The subject of data set [3] is phospholipid content of bile. The data set is described as follows: Variations in the phospholipid content of bile (Phospholipid B-Test Wako). The note with it: intraduodenal, 100 mg/kg, first one-hour period, pre-administration 30 minutes = 100. The format is in vivo, rats. Here is the method: (§1) B. Variations in the phospholipid and cholesterol contents of bile
(§2) Portions of the bile obtained during the first one-hour period of measurement in the bile secretion experiment (1)-A by intraduodenal administration were tested for phospholipid using Phospholipid B-Test Wako (enzyme method, Wako Pure Chemical Industries Ltd.) and for cholesterol using Cholesterol CII-Test Wako measuring kit(COD-p-chlorophenol color development method, Wako Pure Chemical Industries Ltd.). For the quantitative determination of phospholipid and cholesterol, a blank test was conducted, and a calibration curve prepared in advanced was used. The phospholipid and cholesterol contents of the bile flowing out during the period of 30 minutes before the administration of the test drug were taken as 100.

In data set [4] the test system is cholesterol content of bile. The data set is described as follows: Variations in the cholesterol content of bile (Cholesterol CII-Test Wako). Type of data set: in vivo, rats. The note with it: intraduodenal, 100 mg/kg, first one-hour period, pre-administration 30 minutes = 100. Here is the method: as §1, §2
Data set [5] concerns bile acid contents of bile. The data set is described as follows: Variations in bile acid contents of bile (high-speed liquid chromatography). Type of data set: in vivo, rats. The note with it: intraduodenal, 100 mg/kg, first one-hour period, pre-administration 30 minutes = 100. From the text: C. Variations in bile acid contents of bile
Each portion of bile obtained during the first one-hour period of measurement in the foregoing bile secretion experiment (1)-A by intraduodenal administration was partly collected, then diluted 40-fold with freshly distilled methanol and thereafter filtered with use of a 0.45-micron membrane filter (product of Toyo Roshi). The filtrate was subjected to high-speed liquid chromatography according to the method of Okuyama S. et al., Chemistry Letters, p 1443 (1979). The bile acid contents of the bile flowing out during each measurement period were determined with reference to calibration curves prepared in advance for cholic acid, ursodeoxycholic acid, chenodeoxycholic acid and deoxycholic acid, and also for glycine conjugates and taurine conjugates of these acids. The total bile acid content was determined from the results. The bile acid contents and the total bile acid content of the bile flowing out during the period of 30 minutes before the administration of the test drug were taken as 100.

A short description of the next data set: Acute toxicity test. The arrangement: species or system male dd-Y mice. The following applies: mouse, in vivo; oral, mice, 7 days, Litchfield-Wilcoxon method, 95% reliability limit. Here is the method:
The drug to be tested was orally given to male dd-Y mice weighing about 20 g, ten mice in each group. The mice were thereafter observed for 7 days to determine the LD50 from the number of resulting deaths. During the 7-day observation period, the animals were allowed free access to diets and water. The LD50 was determined according to the Litchfield-Wilcoxon method.

The conditions of data set [6]: naturally occurring, used in oriental medicine as "Ryuno"; cited from earlier work.

This is an account of results in patent US4931475A, “Cholagogue and/or gallstone solubilizer” (Hiya Pharmaceutical Co., Ltd., priority 1985, dated 1990).

Broadly, the LD50 is the dose expected to kill half of the subjects tested. Higher therefore signals a less toxic substance.

Take `CC1(C)[C@@H]2CC[C@@]1(C)[C@H](O)C2` (relative stereo) [isoborneol]: in the data set on secretion of bile [1] (100 mg/kg), the “cholagogic effect (amount of bile flowing out)” value (“cholagogic effect” below) is “also had a cholagogic effect”.
Still for that read-out and setting: the result for `CC1(C)[C@@H]2CC[C@@]1(C)[C@@H](O)C2` (relative stereo) [(±)-borneol] reads “also had a cholagogic effect”.
Still for that read-out and setting: the value for `CC(=O)O[C@@H]1C[C@H]2CC[C@]1(C)C2(C)C` [isobornyl acetate] was “also had a cholagogic effect”.
Turning to `CC1(C)[C@@H]2CC[C@@]1(C)[C@@H](O)C2` [(+)-borneol], the “cholagogic effect” value was “sustained great cholagogic effect over the entire observation period of 5 hours” with secretion of bile [1] (100 mg/kg) and “more sustained greater cholagogic effect than the control drug” with secretion of bile [2]. In the data set with solids weight of bile, the “variations in the solids weight of bile” value is reported as “sustained effect to increase the amount of biliary constituents”. Further, the “phospholipid content of bile” value in data set [3] is recorded as “approximately at the same level as those of the normal bile”. Moreover, in data set [4], the “cholesterol content of bile” value is reported as “approximately at the same level as those of the normal bile”. For the same compound, the “bile acid contents of bile” value in data set [5] was “secretion of remarkably increased amounts of chenodeoxylic acid and like bile acids”. Besides, the “total bile acid content of bile” value in data set [5] is “remarkable increase in the total bile acid content”. Besides, the LD50 at 168 h in “Acute toxicity test” was at least 10000 mg/kg. In addition, the “empirically known pharmacological activities” value in data set [6] is “analgesic, anti-inflammatory, sedative and anti-palpitation effects and central depressant activity”.
As for `CC1(C)[C@H]2CC[C@]1(C)[C@H](O)C2` [(-)-borneol], the “cholagogic effect” value with secretion of bile [1] (100 mg/kg) was “also had a cholagogic effect”.
In the case of `C[C@H](CCC(=O)O)[C@H]1CC[C@H]2[C@@H]3C(=O)C[C@@H]4CC(=O)CC[C@]4(C)[C@H]3CC(=O)[C@]12C` [sodium dehydrocholate, reference compound], the “cholagogic effect” value in the data set on secretion of bile [1] (100 mg/kg) is recorded as “transient great cholagogic effect 30 minutes after the administration”. In addition, the “phospholipid content of bile” value in data set [3] was “tendency for the phospholipid and cholesterol contents of bile to increase”. In addition, the “cholesterol content of bile” value in data set [4] was “tendency for the phospholipid and cholesterol contents of bile to increase”. Also, the “bile acid contents of bile” value in data set [5] was “slight transient tendency to produce increased amounts of bile acids including deoxycholic acid only 30 minutes after the administration”. This compound returned an LD50 at 168 h in “Acute toxicity test” of 2500 mg/kg.
With `CC1(C)C2CCC1(C)C(OC1O[C@H](CO)[C@@H](O)[C@H](O)[C@H]1O)C2` (some centres unmarked) [bornyl glucoside], in the data set with secretion of bile [1] (200 mg/kg (bornyl glucoside)), the “cholagogic effect” value is “also had a cholagogic effect”.
Turning to `CC(=O)OC1CC2CCC1(C)C2(C)C` (centres unmarked) [bornyl acetate], in the data set with secretion of bile [1] (100 mg/kg), the “cholagogic effect” value is recorded as “also had a cholagogic effect”.
